Assay results published in patent US20110053914A1, “Pharmaceutical Combination Comprising 6-Dimethylaminomethyl-1-(3-methoxy-phenyl)-cyclohexane-1,3-diol or 6-Dimethylaminomethyl-1-(3-hydroxy-phenyl)-cyclohexane-1,3-diol and an Antiepileptic” (Gruenenthal GmbH, priority 2009, published 2011).
Counter-ions that a name gives are not always drawn. Like-named read-outs stand apart in the source and are kept apart here.

How the values were obtained:
Assay type in all cases: in vivo, rat
rats [1] = experiment: Spinal nerve ligation (Chung model for mononeuropathic pain) in rats, anti-allodynic testing; details: 30 min after A; A 4 mg/kg iv; B 10 mg/kg iv 20 min before A or vehicle; tactile allodynia
Description: Under pentobarbital anaesthesia (Narcoren®, 60 mg/kg i.p., Merial GmbH, Hallbergmoos, FRG), the L5, L6 spinal nerves were tightly ligated (Kim and Chung, Pain 1992; 50: 355). The left L5 and L6 spinal nerves were exposed by removing a small piece of the paravertebral muscle and a part of the left spinous process of the L5 lumbar vertebra. The L5 and L6 spinal nerves were then carefully isolated and tightly ligated with silk (NC-silk black, USP 5/0, metric 1, Braun Melsungen AG, Melsungen, FRG). After checking hemostasis, the muscle and the adjacent fascia were closed with sutures and the skin was closed with sutures.
After operation, animals were allowed to recover for one week. Animals develop tactile allodynia which is stable for at least five weeks. […] Threshold for tactile allodynia was measured with an electronic von Frey anesthesiometer (Somedic, Sweden). […] The median of the withdrawal threshold for each animal at a given time is calculated from five individual stimulations with the electronic von Frey filament. Withdrawal thresholds of the injured paws are expressed as % maximal possible effect (% MPE) comparing predrug threshold of Chung-animals (=0% MPE) and control threshold of sham-animals (=100% MPE). […] The effect of each compound and vehicle is calculated for each testing time point (e.g. 0.5, 1, 3 h post administration) as interindividual % MPE value (±SEM). […]

rats [2] = experiment: Randall-Selitto test in rats (carrageenan inflammatory pain); details: for ED50: Rattus norvegicus, 0.25 h
Description: The weight ratios of the components (a) and (b) that will lead to a supra-additive effect (synergistic effect) of the inventive pharmaceutical composition may be determined via the test of Randall and Selitto as described in Arch. Int. Pharmacodyn., 1957, 111: 409 to 419, which is a model for inflammatory pain. The respective part of the literature is hereby incorporated by reference and forms part of the present disclosure.
Acute inflammation was induced by an intraplantar injection of 0.1 ml of a carrageenan solution (0.5% in distilled water) into one hind paw. The mechanical nociceptive threshold was measured 4 hours after carrageenan injection using an Algesiometer (Ugo Basile, Italy). The device generates a mechanical force with a linear increase over time. The force is applied to the dorsal surface of the inflamed rat hind paw via a cone-shaped stylus with a rounded tip (2 mm tip diameter). The nociceptive threshold is defined as the force (in grams) at which the rat vocalises (cut-off force 250 g). The mechanical nociceptive threshold is measured at different timepoints after the drug or vehicle administration. The antinociceptive and antihyperalgesic activity of the tested substance is expressed as percentages of the maximal possible effect (% MPE). The group size is n=10.
The interactions studies presented herein were performed using equieffective doses of the two components, calculated from the ratio of the respective ED50 values of the components if administered alone.
The application route was intravenous (i.v.) for Axomadol hydrochloride (A) and intraperitoneal (i.p.) for the anticonvulsants Lamotrigine, Lacosamide, Levetiracetam, Retigabine and Carbamazepine. […] According to their respective timepoint of peak effect, A was applied 15 min and the anticonvulsant component also 15 min before timepoint of measurement of the interaction-experiments (i.e. both components were applied simultaneously). Thus, the time point of ED50 calculation of the combination corresponds to the timepoint of the peak effect of the respective compound.

male Sprague Dawley rats = experiment: Paw incision model in rats (post-operative pain), electronic von Frey; details: intraperitoneal, at maximum effect; effective dose at 25% of the maximum effect; tactile hyperalgesia
Source text: The paw incision model (Brennan, T. J., Vandermeulen, E. P., Gebhart, G. F., Pain 64, (1996), 493-501) is an animal model of post-operative pain.
In male Sprague Dawley rats (body weight 180-200 g) a longitudinal incision of 1 cm length is made, starting 0.5 cm from the proximal end of the paw, through the skin and fascia. Using bent tweezers the muscle is lifted up from the bottom and incised lengthwise, flat and centered using a scalpel. The muscle is spreaded bluntly with the tweezers. Subsequently, the wound is closed with two sutures.
The tactile hyperalgesia two hours after the operation is determined using an electronic von Frey filament (Somedic Sales AB, Hörby, Sweden). […] In order to investigate the sensitivity to the mechanical stimulus, the paw retraction threshold is determined on the ipsilateral paw as well as in the same position on the untreated contralateral paw and is given in grams of the applied pressure. The retraction threshold per paw is measured four times and the median value is then determined. The retraction threshold of the ipsi- and contralateral paw is measured prior administration (pre-test value) and at several times after administration of a substance, namely (15, 30 and 60 minutes after administration). […]
From the median values the Maximum Positive Effect (% MPE) is determined according to the following formula: […]

[3] = ip, i.p., 15 min p. appl. (peak effect), read-out: ED50 [mg/kg] of the anticonvulsant alone

Row | Compound | ED50 (rats [2]; [3]) [mg/kg] | Time point of peak effect p. appl. (rats [2]; anticonvulsant alone, i.p.) [min] | other results
1 | NCC1(CC(=O)O)CCCCC1 [B, Gabapentin hydrochloride] | – | – | Effect % MPE (time after administration of A) (rats [1]): 16 ± 5 (30 min) % MPE
2 | CC[C@@H](C(N)=O)N1CCCC1=O [Levetiracetam] | 986 | 15 | –
3 | Nc1nnc(-c2cccc(Cl)c2Cl)c(N)n1 [Lamotrigine] | 35.3 | 15 | –
4 | COC[C@@H](NC(C)=O)C(=O)NCc1ccccc1 [Lacosamide] | 35.9 | 15 | ED50 [mg/kg] of the anticonvulsant alone (rats [2]; i.p., 15 min p. appl. (peak effect)): 35.9 mg/kg
5 | NC(=O)N1c2ccccc2C=Cc2ccccc21 [Carbamazepine] | 30 | 15 | –
6 | CC(C)C[C@H](CN)CC(=O)O [(S)-pregabaline] | – | – | ED25 [mg/kg] (confidence interval) of the individual substance (male Sprague Dawley rats): 18.8 mg/kg
7 | CCOC(=O)Nc1ccc(NCc2ccc(F)cc2)cc1N [Retigabine] | 5.09 | 15 | –
8 | COc1cccc([C@@]2(O)C[C@H](O)CC[C@@H]2CN(C)C)c1 (racemic) [A, (1RS,3RS,6RS)-6-dimethylaminomethyl-1-(3-methoxy-phenyl)-cyclohexane-1,3-diol hydrochloride] | – | – | ED25 [mg/kg] (confidence interval) of the individual substance (male Sprague Dawley rats): 9.15 mg/kg; Effect % MPE (time after administration of A) (rats [1]): 29 ± 6 (30 min) % MPE; Time point of peak effect p. appl. (rats [2]; A alone, i.v., timepoint of first measurement): 15 min; ED50 (rats [2]; iv, i.v., 15 min p. appl. (peak effect), read-out: ED50 [mg/kg] of A alone): 15.3 mg/kg; ED50 [mg/kg] of A alone (rats [2]; i.v., 15 min p. appl. (peak effect), hydrochloride): 15.3 mg/kg
